The test addresses T1, Met kinase domain (GST fusion protein) (Homo sapiens, UniProt P08581).
T1 construct: Purified GST fusion protein containing the Met kinase domain
Description: Met transphosphorylation assay (ELISA, poly(glu-tyr) substrate).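 Also: Cell-free ELISA with plate-bound poly(Glu:Tyr 4:1) phosphorylated by GST-fused Met kinase domain plus ATP and Mn2+, phosphotyrosine detected by anti-phosphotyrosine antibody with HRP and ABTS read-out.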 The test is classed as biochemical. The following applies: read-out: Met IC50.

The mark [1] stands for this setting: plain numbers in column Met IC50 (μM) of Table 2.

Each structure is given as a SMILES string. Read-outs that look alike come from different tables or passages of the source. A value given as a limit tells only on which side of the number the result lay.

T1 sequence (P08581 1078-1345 limits assumed): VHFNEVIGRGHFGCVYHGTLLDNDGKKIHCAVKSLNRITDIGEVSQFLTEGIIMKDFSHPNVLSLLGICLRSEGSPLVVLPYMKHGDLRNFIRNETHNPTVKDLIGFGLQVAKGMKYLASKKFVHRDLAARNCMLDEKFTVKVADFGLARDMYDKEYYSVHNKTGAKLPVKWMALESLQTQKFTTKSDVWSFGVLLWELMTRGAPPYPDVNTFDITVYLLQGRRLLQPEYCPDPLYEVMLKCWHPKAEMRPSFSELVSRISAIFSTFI

For the compound `CC(Oc1nc(-c2ccc(NS(=O)(=O)CCN(C)C)cc2)cnc1N)c1c(Cl)ccc(F)c1Cl` (stereo not shown) [II-142, 2-Dimethylamino-ethanesulfonic acid (4-{5-amino-6-[1-(2,6-dichloro-3-fluoro-phenyl)-ethoxy]-pyrazin-2-yl}-phenyl)-amide], the IC50 (usually the concentration at which inhibition is half-maximal) worked out at 0.22 µM.

Regarding `Nc1ncc(-c2cccc(NS(=O)(=O)CCNC3CC3)c2)cc1OCc1c(F)ccc(F)c1Cl` [Example I-266, 2-Cyclopropylamino-ethanesulfonic acid {3-[6-amino-5-(2-chloro-3,6-difluoro-benzyloxy)-pyridin-3-yl]-phenyl}-amide], the IC50 (Table 2) was 0.9 µM.

`Nc1ncc(-c2ccc(C(=O)NCCCN3CCOCC3)cc2)nc1OCc1c(F)ccc(F)c1Cl` [II-43, 4-[5-Amino-6-(2-chloro-3,6-difluoro-benzyloxy)-pyrazin-2-yl]-N-(3-morpholin-4-yl-propyl)-benzamide]: the IC50 is 0.59 µM.

As for `Nc1ncc(-c2ccc(F)c(F)c2)cc1OCc1c(Cl)cccc1Cl` [Example I-21, 3-(2,6-Dichloro-benzyloxy)-5-(3,4-difluoro-phenyl)-pyridin-2-ylamine], the IC50 stood at 14.3 µM.

On to `CC(Oc1cc(-c2cncnc2)cnc1N)c1c(F)ccc(F)c1Cl` (stereo not shown) [Example I-526, 3-[1-(2-Chloro-3,6-difluoro-phenyl)-ethoxy]-5-pyrimidin-5-yl-pyridin-2-ylamine], for which, under setting [1], the IC50 was determined as 0.552 µM.

Turning to `Nc1ccc(-c2cnc(N)c(OCc3c(Cl)cccc3Cl)c2)cn1` [Example I-509, 5-(2,6-Dichloro-benzyloxy)-[3,3′]bipyridinyl-6,6′-diamine], under setting [1], the IC50 is 0.578 µM.

Turning to `CC(=O)N[C@H]1CCN(Cc2c[nH]c3ccc(-c4cnc(N)c(OCc5c(F)ccc(F)c5Cl)c4)cc23)C1` [Example I-72, N-(1-{5-[6-Amino-5-(2-chloro-3,6-difluoro-benzyloxy)-pyridin-3-yl]-1H-indol-3-ylmethyl}-(3S)-pyrrolidin-3-yl)-acetamide], the IC50 was 0.95 µM.

Take `Nc1ncc(-c2ccc(C(=O)N3CC[C@H](N)C3)cc2)cc1OCc1c(F)cccc1Cl` [Example I-145, {4-[6-Amino-5-(2-chloro-6-fluoro-benzyloxy)-pyridin-3-yl]-phenyl}-[(3S)-3-amino-pyrrolidin-1-yl]-methanone]: the IC50 was 0.63 µM.

As to `Nc1ncc(-c2ccc(NS(=O)(=O)CCN3CCCC3)cc2)nc1OCc1c(F)ccc(F)c1Cl` [II-12, 2-Pyrrolidin-1-yl-ethanesulfonic acid {4-[5-amino-6-(2-chloro-3,6-difluoro-benzyloxy)-pyrazin-2-yl]-phenyl}-amide], the IC50 was 0.58 µM.

On to `CC(Oc1cc(-c2ccc(N)nc2)cnc1N)c1c(F)ccc(F)c1Cl` (stereo not shown) [Example I-516, 5-[1-(2-Chloro-3,6-difluoro-phenyl)-ethoxy]-[3,3′]bipyridinyl-6,6′-diamine], for which the IC50 under setting [1] turned out to be 0.0393 µM.

For `CCN(CC)CCS(=O)(=O)Nc1ccc(-c2cnc(N)c(OC(C)c3c(F)ccc(F)c3Cl)c2)cc1` (stereo not shown) [Example I-329, 2-Diethylamino-ethanesulfonic acid (4-{6-amino-5-[1-(2-chloro-3,6-difluoro-phenyl)-ethoxy]-pyridin-3-yl}-phenyl)-amide], the IC50 (Table 2) was determined as 0.095 µM.

`CC(C)(C)c1ccc(COc2cc(-c3ccc(O)cc3)cnc2N)cc1` [Example I-134, 4 [6-Amino-5-(4-teert-butyl-benzyloxy)-pyridin-3-yl]-phenol]: the IC50 was 4 µM.

In the case of `CN1CCN(C(=O)c2cc3cc(-c4cnc(N)c(OCc5c(Cl)cccc5Cl)c4)ccc3[nH]2)CC1` [Example I-78], the IC50 was 0.18 µM.

Regarding `Nc1ncc(-c2cccc(C(=O)N3CC[C@H](N)C3)c2)cc1OCc1c(F)ccc(F)c1Cl` [Example I-233, {3-[6-Amino-5-(2-chloro-3,6-difluoro-benzyloxy)-pyridin-3-yl]-phenyl}-[(3S)-amino-pyrrolidin-1-yl]-methyanone], under “Table 2”, the IC50 was 0.12 µM.

On to `C[C@@H]1CN(C(=O)c2ccc(-c3cnc(N)c(OCc4c(F)ccc(F)c4Cl)n3)s2)C[C@H](C)N1` [II-196, {5-[5-Amino-6-(2-chloro-3,6-difluoro-benzyloxy)-pyrazin-2-yl]-thiophen-2-yl}-((3R,5S)-3,5-dimethyl-piperazin-1-yl)-methanone], for which the IC50 was 0.55 µM.

`Nc1ncc(-c2ccc(NS(=O)(=O)CCN3CCN(C(=O)CO)CC3)cc2)cc1OCc1c(F)ccc(F)c1Cl` [Example I-254, 2-[4-(2-Hydroxy-acetyl)-piperazin-1-yl]-ethanesulfonic acid {4-[6-amino-5-(2-chloro-3,6-difluoro-benzyloxy)-pyridin 3-yl]-phenyl}-amide]: the IC50 (Table 2) was 0.18 µM.

As for `Nc1ncc(-c2ccccc2)cc1OCc1ccc(Cl)c(Cl)c1` [Example I-96, 3-(3,4-Dichloro-benzyloxy)-5-phenyl-pyridin-2-ylamine], the IC50 was 16.2 µM.

With `CC(Oc1nc(-c2ccc(NS(=O)(=O)CCN3CCCC3)cc2)cnc1N)c1c(Cl)ccc(F)c1Cl` (stereo not shown) [II-144, 2-Pyrrolidin-1-ylethanesulfonic acid (4-{5-amino-6-[1-(2,6-dichloro-3-fluoro-phenyl)-ethoxy]-pyrazin-2-yl}-phenyl)-amide], the concentration for half-maximal inhibition (IC50) worked out at 0.36 µM.

Regarding `CC(Oc1cc(-c2ccc(C(=O)N3CCN(C)CC3)cc2)cnc1N)c1c(Cl)ccc(F)c1Cl` (stereo not shown) [Example I-541, (4-{6-Amino-5-[1-(2,6-dichloro-3-fluoro-phenyl)-ethoxy]-pyridin-3-yl}-phenyl)-(4-methyl-piperazin-1-yl)-methanone], under setting [1], the IC50 is 0.079 µM.

With `CC(=O)N1CCN(Cc2c[nH]c3ccc(-c4cnc(N)c(OCc5c(F)ccc(F)c5Cl)c4)cc23)CC1` [Example I-70, 1-(4-{5-[6-Amino-5-(2-chloro-3,6-difluoro-benzyloxy)-pyridin-3-yl]-1H-indol-3-ylmethyl}-piperazin-1-yl)-ethanone], the IC50 was found to be 0.8 µM.

Turning to `CC(Oc1cc(-c2ccc(C(=O)N3C[C@@H](C)N[C@@H](C)C3)cc2)cnc1N)c1c(Cl)cccc1Cl` (stereo partly drawn) [Example I-404, (4-{6-Amino-5-[1-(2,6-dichloro-phenyl)-ethoxy]-pyridin-3-yl}-phenyl)-((3R,5S)-3,5-dimethyl-piperazin-1-yl)-methanone], the IC50 under setting [1] came to 0.052 µM.

Turning to `Nc1ncc(-c2ccccn2)cc1OCc1ccccc1Cl` [Example I-492, 5′-(2-Chloro-benzyloxy)-[2,3′]bipyridinyl-6′-ylamine], the IC50 under setting [1] was 8.24 µM.

On to `CC(Oc1cc(-c2ccc(NC(=O)N3CCN(C)CC3)cc2)cnc1N)c1c(F)ccc(F)c1Cl` (stereo not shown) [Example I-382, 4-Methyl-piperazine-1-carboxylic acid (4-{6-amino-5-[1-(2-chloro-3,6-difluoro-phenyl)-ethoxy]-pyridin-3-yl}-phenyl)-amine], for which the concentration for half-maximal inhibition (IC50) under setting [1] turned out to be 0.082 µM.

Turning to `CC(Oc1nc(-c2cccc(C(=O)NCCN3CCCC3)c2)cnc1N)c1c(F)ccc(F)c1Cl` (stereo not shown) [II-99, 3-{5-Amino-6-[1-(2-chloro-3,6-difluoro-phenyl)-ethoxy]-pyrazin-2-yl}-N-(2-pyrrolidin-1-yl-ethyl)-benzamide], the IC50 is 0.18 µM.

On to `CS(=O)(=O)Nc1ccc(-c2cnc(N)c(OCc3ccccc3C(=O)O)c2)cc1` [Example I-137, 2-[2-Amino-5-(4-methanesulfonylamino-phenyl)-pyridin-3-yloxymethyl]-benzoic acid], for which the IC50 was greater than 20 µM.
